Reference: patent US20110027352A1, “COMPOUNDS FOR USE IN THE TREATMENT OF NEUROPATHIC PAIN” (priority 2008, published 2011)
Entries after “also recorded” stand apart in the source; their conditions may differ. Where a name gives a salt, the structure may show the parent alone.

Experiments:
Format in all cases: in vivo, C57BL/6J mice
[1] = system: mechanical allodynia of the neuropathic (“Cuff”) mice; test: Cotreatment with adrenoreceptor antagonists in Cuff mice relieved by chronic nortriptylin or beta-agonist treatment, von Frey test; conditions: for Blocking of the effect of antidepressants on neuropathic allodynia by repeated antagonist treatment, summary statement: doses as in examples 3 to 6; for Effect of coadministered beta2-adrenoreceptor antagonist ICI 118,551 on the allodynia of agonist-treated Cuff mice: ICI 118,551 2 mg/kg intraperitoneal, after 3 weeks of agonist treatment (doses as in chronic treatment; terbutalin 0.5 mg/kg), 3 to 6 days of cotreatment; for Effect of ICI 118,551 on the therapeutic effect of chronic agonist treatment on neuropathic allodynia, summary statement: chronic treatment with the agonist plus beta2-adrenoreceptor antagonist ICI 118,551
Experimental: (§1) The model is obtained by placing a polyethylene cuff around the main branch of the right sciatic nerve of each mouse. Before any surgical procedure, the mice were assigned to the various experimental groups in such a way that the baseline mechanical nociception threshold and the weight are equivalent between the various groups. The surgical procedure was carried out under ketamin-xylazin anesthesia (ketamin: 17 mg/ml, xylazin 2.5 mg/ml, intraperitoneal injection in a proportion of 4 ml/kg) (limited liability company Centravet, Taden, France). The common branch of the sciatic nerve was exposed and a section 2 mm long of a hollow PE-20 polyethylene tube (“Harvard Apparatus”, Les Ulis, France) was placed around said branch (“Cuff” group). […] Control mice were operated on according to the same procedure, but without placing the cuff (“Sham” group). The experimental groups are made up of at least 4 mice for each control (“Sham”) group and at least 5 mice for each neuropathic (“Cuff”) group.
For the tests, in the examples which follow, the pressure is exerted on the foot of the mice by means of von Frey filaments (Bioseb, Chaville, France) (Benbouzid, M. et al. Biological Psychiatry 63:633-636 (2008) (10) and Benbouzid, M. et al. European Journal of Pain 12:591-599 (2008) (11)). The mice are placed in transparent Plexiglas (registered trademark) boxes (7 cm×9 cm×7 cm) placed on a raised grid. Before the test, the mice are allowed to become accustomed to this device for 15 minutes. During the test, the von Frey filaments are applied to the plantar surface of each back foot according to ascending forces (from 0.16 g up to a foot withdrawal response, or up to a maximum of 10 g). Each filament is tested 5 times per foot and the threshold is defined by the presence of 3 or more withdrawals observed over the 5 tests. Before the surgery as described above, the animals were pretested in order to establish their baseline nociceptive response. During the chronic treatment experiments and those of repeated injection of antagonists, the tests are carried out in the mornings before the first injection of the day. During the acute agonist injection experiments, the tests are carried out after the first injection according to the time course as presented on the graphs.
The procedure for intrathecal (i.t.) injection of the beta2-adrenoreceptor antagonist ICI 118,551 (3 μg in 10 μl) is carried out under halothane gas anesthesia according to the protocol described by Inoue et al. (Nature Medicine 2004, 10:712-718 (12)). These i.t. injections are carried out just before the intraperitoneal injection of salbutamol (2 mg/kg, i.p.). A 27-gauge injection needle connected to a 50 μl Hamilton syringe is inserted, between the L5 and L6 vertebrae, into the subarachnoid space. The correct placement of the needle is verified by the presence of a reflex movement of the tail of the mouse. The mice are pretested before this cotreatment procedure, and then cotreated twice (a morning and the corresponding evening) before being retested the following morning for their mechanical nociceptive sensitivity.

[2] = system: nociceptive sensitivity of the mice of the control (“Sham”) group; test: von Frey filament test in control (Sham) mice operated without cuff; conditions: for Sensitivity of control (Sham) animals under chronic treatment, recapitulation (FIG. 26): chronic treatment (14-21 days), doses and modes as in examples 2, 7, 9 to 14 and 20 (formoterol 0.5 mg/kg, terbutalin 5 mg/kg); for Nociceptive sensitivity of control (Sham) mice under chronic treatment: repeated injections, doses and modes as for the Cuff mice of the same example
Experimental: (§2) The experiments were carried out on adult male mice. The pharmacological experiments were carried out using C57BL/6J mice (3-to-6 weeks old on their arrival, Charles River, L'Arbresle, France).
as §1
(§3) The mice are placed in transparent Plexiglas (registered trademark) boxes (7 cm×9 cm×7 cm) placed on a raised grid. Before the test, the mice are allowed to become accustomed to this device for 15 minutes. During the test, the von Frey filaments are applied to the plantar surface of each back foot according to ascending forces (from 0.16 g up to a foot withdrawal response, or up to a maximum of 10 g). Each filament is tested 5 times per foot and the threshold is defined by the presence of 3 or more withdrawals observed over the 5 tests. Before the surgery as described above, the animals were pretested in order to establish their baseline nociceptive response. During the chronic treatment experiments and those of repeated injection of antagonists, the tests are carried out in the mornings before the first injection of the day. During the acute agonist injection experiments, the tests are carried out after the first injection according to the time course as presented on the graphs.
(§4) For all the treatments carried out by injection, said injections were given intraperitoneally in a volume of 50 microL per 10 mg of body weight.

[3] = system: mechanical allodynia of the neuropathic (“Cuff”) mice; test: Sciatic nerve cuff murine model of neuropathic pain, von Frey filament test in neuropathic (Cuff) mice; conditions: for Mechanical allodynia of Cuff mice after the first (acute) injection: intraperitoneal, mice neuropathic for 2 weeks; for Mechanical allodynia in neuropathic (Cuff) mice after chronic application of a gel to the skin: 0.1 ml of gel twice a day, from 8 days after surgery; for Allodynia in neuropathic (Cuff) animals after chronic treatment, recapitulation (FIG. 25): chronic treatment (14-21 days), doses and modes as in examples 7, 9 to 14 and 20 (formoterol 0.5 mg/kg, terbutalin 5 mg/kg); for Effect on neuropathic allodynia acutely after the first injection, summary statement: first injection of the agonist, doses as in examples 7, 9, 11 and 15
Experimental: as §2
All the experiments began with mice that were 6-to-9 weeks old. […] For all the other experiments, the mice were combined at four to five per cage and kept under alternating 12-hour day/night (light at 6 am) with food and water ad libitum.
as §1, §3
The surgery for installing the cuff corresponds to day 0.
as §4

[4] = antagonist 2 mg/kg intraperitoneal with nortriptylin 5 mg/kg twice a day, after 3 weeks of nortriptylin (metoprolol, ICI 118,551: for 6 days)
[5] = intraperitoneal antagonist, doses as for the Cuff mice of the same example (ICI 118,551 2 mg/kg, yohimbin 2 mg/kg, propranolol 5 mg/kg), with or without cotreatment
[6] = 0.5 mg/kg, injection twice a day, chronic

## COCCc1ccc(OCC(O)CNC(C)C)cc1 (racemic) [metoprolol, (+/−)-metoprolol (+)-tartrate]
[1]; [4]
  Effect of antagonist cotreatment on the therapeutic benefit of nortriptylin in Cuff mice: has no influence on the therapeutic benefit
[1]
  Blocking of the effect of antidepressants on neuropathic allodynia by repeated antagonist treatment, summary statement: only the beta2-adrenoreceptor antagonist blocks the effect of antidepressants

## COC(=O)[C@@H]1[C@H]2C[C@H]3c4[nH]c5ccccc5c4CCN3C[C@@H]2CC[C@@H]1O [yohimbin]
[1]; [4]
  Effect of antagonist cotreatment on the therapeutic benefit of nortriptylin in Cuff mice: has no influence on the therapeutic benefit
[1]
  Blocking of the effect of antidepressants on neuropathic allodynia by repeated antagonist treatment, summary statement: ineffective in blocking the analgesic effect of antidepressants
[2]; [5]
  Nociceptive sensitivity of control (Sham) mice under antagonist injections: not affected

## CC(C)(C)NCC(O)c1cc(O)cc(O)c1 (stereo not shown) [terbutalin]
[1]
  Effect of coadministered beta2-adrenoreceptor antagonist ICI 118,551 on the allodynia of agonist-treated Cuff mice: causes the allodynia to reappear
  Effect of ICI 118,551 on the therapeutic effect of chronic agonist treatment on neuropathic allodynia, summary statement: blocks the therapeutic effect
[2]
  Sensitivity of control (Sham) animals under chronic treatment, recapitulation (FIG. 26): do not affect the control animals; also recorded: does not aspecifically affect the sensitivity of the control animals
  Nociceptive sensitivity of control (Sham) mice under chronic treatment: not affected
[2]; terbutalin 0.125, 0.25, 0.5 or 5 mg/kg, nortriptylin 5 mg/kg, twice a day, 3 weeks
  Sensitivity of control (Sham) animals, dose-response recapitulation (FIG. 21): do not affect
[3]; 0.125 mg/kg, injection twice a day, chronic
  Mechanical allodynia of the right (neuropathic) foot after chronic treatment: completely suppress the mechanical allodynia
[3]; 0.25 mg/kg, injection twice a day, chronic
  Mechanical allodynia of the right (neuropathic) foot after chronic treatment: completely suppress the mechanical allodynia
[3]; [6]
  Mechanical allodynia in neuropathic (Cuff) mice after chronic treatment: completely suppresses the mechanical allodynia
  Response of the non-neuropathic left foot (foot without surgery) of Cuff mice: without aspecifically affecting the response
[3]; 5 mg/kg, injection twice a day (morning and evening), chronic
  Mechanical allodynia in neuropathic (Cuff) mice after chronic treatment: completely suppresses the mechanical allodynia
[3]; 5 mg/kg
  Mechanical allodynia of Cuff mice after the first (acute) injection: has no effect on the mechanical allodynia
[3]; 2.5 mg/ml terbutalin hemisulfate in 5% hydroxyethylcellulose gel
  Mechanical allodynia in neuropathic (Cuff) mice after chronic application of a gel to the skin: relieves the mechanical allodynia; also recorded: relieves neuropathic allodynia
[3]; 0.125, 0.25, 0.5 or 5 mg/kg twice a day, chronic (3 weeks)
  Mechanical sensitivity of the non-neuropathic left foot of Cuff mice (FIG. 21): without affecting the mechanical sensitivity
[3]; 0.125, 0.25, 0.5 or 5 mg/kg twice a day, chronic (3 weeks), averaged over third week
  Allodynia of the neuropathic right foot, dose-response recapitulation (FIG. 21): suppresses the allodynia
[3]
  Allodynia in neuropathic (Cuff) animals after chronic treatment, recapitulation (FIG. 25): relieve this allodynia; also recorded: causes the neuropathic pain, for example the neuropathic allodynia, to completely disappear
  Effect on neuropathic allodynia acutely after the first injection, summary statement: not observed acutely after the first injection
[3]; silicone tube implant containing 10 mg terbutalin hemisulfate, inserted 14 days after surgery
  Mechanical allodynia in neuropathic (Cuff) mice with subcutaneous implant (continuous delivery): relieves the mechanical allodynia; also recorded: relieves neuropathic allodynia

## Cc1ccc(OCC(O)C(C)NC(C)C)c2c1CCC2 (stereo not shown) [ICI 118,551]
[1]; ICI 118,551 2 mg/kg intraperitoneal coadministered with nortriptylin, Cuff mice
  Time to reappearance of allodynia after the beginning of the cotreatment with nortriptylin: ≤ 48 h
[1]; [4]
  Effect of antagonist cotreatment on the therapeutic benefit of nortriptylin in Cuff mice: leads to reappearance of the neuropathic allodynia
[1]
  Blocking of the effect of antidepressants on neuropathic allodynia by repeated antagonist treatment, summary statement: blocks the effect of antidepressants
[2]; ICI 118,551 intraperitoneal (2 mg/kg) or intrathecal (3 μg in 10 μl), with salbutamol
  Nociceptive sensitivity of control (Sham) mice under antagonist injections: not affected
[2]; [5]
  Nociceptive sensitivity of control (Sham) mice under antagonist injections: not affected; also recorded: does not affect the response of the control animals

## CN(C)C(=O)Oc1cc(OC(=O)N(C)C)cc(C(O)CNC(C)(C)C)c1 (stereo not shown) [bambuterol]
[1]
  Effect of coadministered beta2-adrenoreceptor antagonist ICI 118,551 on the allodynia of agonist-treated Cuff mice: causes the allodynia to reappear
  Effect of ICI 118,551 on the therapeutic effect of chronic agonist treatment on neuropathic allodynia, summary statement: blocks the therapeutic effect
[2]; bambuterol 0.5 mg/kg, intraperitoneal, first injection
  Control (Sham) mice after the first administration: unaffected
[2]
  Sensitivity of control (Sham) animals under chronic treatment, recapitulation (FIG. 26): do not affect the control animals; also recorded: does not aspecifically affect the sensitivity of the control animals
  Nociceptive sensitivity of control (Sham) mice under chronic treatment: not affected
[3]; [6]
  Mechanical allodynia in neuropathic (Cuff) mice after chronic treatment: completely suppresses the mechanical allodynia
[3]; 0.5 mg/kg
  Mechanical allodynia of Cuff mice after the first (acute) injection: has no anti-allodynia effect
[3]
  Allodynia in neuropathic (Cuff) animals after chronic treatment, recapitulation (FIG. 25): relieve this allodynia; also recorded: causes the neuropathic pain, for example the neuropathic allodynia, to completely disappear
  Effect on neuropathic allodynia acutely after the first injection, summary statement: not observed acutely after the first injection

## CC(C)NCC(O)c1ccc(NS(C)(=O)=O)cc1.Cl (racemic) [sotatol, (+/−) sotatol hydrochloride]
[1]; 2 mg/kg in place of propranolol 5 mg/kg, same results = as propranolol (allodynia reappears in Cuff, Sham not affected)
  Effect of antagonist cotreatment with nortriptylin, compared with propranolol: same results

## CC(C)NCC(O)COc1cccc2ccccc12 (racemic) [propranolol, (+/−)-propranolol hydrochloride]
[1]; antagonist 5 mg/kg intraperitoneal with nortriptylin 5 mg/kg twice a day, after 3 weeks of nortriptylin
  Effect of antagonist cotreatment on the therapeutic benefit of nortriptylin in Cuff mice: causes the allodynia to reappear in a few days
[1]
  Blocking of the effect of antidepressants on neuropathic allodynia by repeated antagonist treatment, summary statement: blocks the therapeutic effect of antidepressants
[2]; intraperitoneal antagonist, doses as for the Cuff mice of the same example (ICI 118,551 2 mg/kg, yohimbin 2 mg/kg, propranolol 5 mg/kg), with or without cotreatment, hydrochloride
  Nociceptive sensitivity of control (Sham) mice under antagonist injections: not affected; also recorded: does not affect the response of the control animals

## CC(C)NCC(O)COc1ccc(CC(N)=O)cc1 (stereo not shown) [atenolol]
[1]; 5 mg/kg in place of metoprolol 2 mg/kg, same results = as metoprolol (no influence on the therapeutic benefit)
  Effect of antagonist cotreatment with nortriptylin, compared with metoprolol: same results

## CC(C)NCC(O)c1ccc(O)c(O)c1 (racemic) [isoprenalin, DL-isoproterenol chloride]
[1]
  Effect of coadministered beta2-adrenoreceptor antagonist ICI 118,551 on the allodynia of agonist-treated Cuff mice: causes the allodynia to reappear
  Effect of ICI 118,551 on the therapeutic effect of chronic agonist treatment on neuropathic allodynia, summary statement: blocks the therapeutic effect
[2]
  Sensitivity of control (Sham) animals under chronic treatment, recapitulation (FIG. 26): do not affect the control animals; also recorded: does not aspecifically affect the sensitivity of the control animals
[3]; [6]
  Mechanical allodynia in neuropathic (Cuff) mice after chronic treatment: completely suppresses the mechanical allodynia
[3]
  Allodynia in neuropathic (Cuff) animals after chronic treatment, recapitulation (FIG. 25): relieve this allodynia; also recorded: causes the neuropathic pain, for example the neuropathic allodynia, to completely disappear

## CC(C)NCC(O)c1cc(O)cc(O)c1 (stereo not shown) [metaproterenol]
[2]
  Sensitivity of control (Sham) animals under chronic treatment, recapitulation (FIG. 26): do not affect the control animals; also recorded: does not aspecifically affect the sensitivity of the control animals
[3]; 1 mg/kg, injection twice a day, chronic
  Mechanical allodynia in neuropathic (Cuff) mice after chronic treatment: completely suppresses the mechanical allodynia
[3]; 1 mg/ml metaproterenol hemisulfate in 5% hydroxyethylcellulose gel
  Mechanical allodynia in neuropathic (Cuff) mice after chronic application of a gel to the skin: relieves the mechanical allodynia; also recorded: relieves neuropathic allodynia
[3]
  Allodynia in neuropathic (Cuff) animals after chronic treatment, recapitulation (FIG. 25): relieve this allodynia; also recorded: causes the neuropathic pain, for example the neuropathic allodynia, to completely disappear

## CCc1ccccc1OC[C@@H](O)CN[C@H]1CCCc2ccccc21 [SR59230A]
[1]; antagonist 2.5 mg/kg intraperitoneal for 6 days with nortriptylin, after 3 weeks of nortriptylin
  Effect of antagonist cotreatment on the therapeutic benefit of nortriptylin in Cuff mice: has no influence on the therapeutic benefit
[1]
  Blocking of the effect of antidepressants on neuropathic allodynia by repeated antagonist treatment, summary statement: only the beta2-adrenoreceptor antagonist blocks the effect of antidepressants
